Data: ChEMBL document CHEMBL1201862, “PubChem BioAssay data set” (2004)
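Step 1: Grow cells in 96-well plates. Step 2: Expose to compound for 48 hours at 5 concentrations. Step 3: Interpolate endpoints linearly; if unreached, use highest concentration. Abbreviation: GI50, concentration required for 50% inhibition of growth.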 Active and inactive are the calls of the source. Cut-off read from the data, not from the text of the source: active = GI50 up to about 1.1 µM and inactive = higher.

How the values were obtained:
Assay in all cases: DTP human tumour cell line panel, 48 h
[1] = test system: A549
[2] = test system: HCT-116
[3] = test system: PC-3
[4] = test system: Malme-3M
[5] = test system: HCT-15
[6] = test system: OVCAR-3
[7] = test system: CAKI-1
[8] = test system: CCRF-CEM
[9] = test system: SK-MEL-2
[10] = test system: SF-539
[11] = test system: LOX IMVI
[12] = test system: M14
[13] = test system: NCI-H460
[14] = test system: SF-295
[15] = test system: SN12C
[16] = test system: IGROV-1
[17] = test system: ACHN
[18] = test system: TK-10
[19] = test system: UACC-257
[20] = test system: SF-268
[21] = test system: KM12
[22] = test system: K562
[23] = test system: T47D
[24] = test system: COLO 205
[25] = test system: Hs-578T
[26] = test system: U-251
[27] = test system: UACC-62
[28] = test system: DU-145
[29] = test system: MDA-MB-231
[30] = test system: EKVX
[31] = test system: HT-29
[32] = test system: MOLT-4
[33] = test system: MDA-MB-435
[34] = test system: NCI-H226
[35] = test system: HCC 2998
[36] = test system: A498
[37] = test system: RXF 393
[38] = test system: NCI-H522
[39] = test system: RPMI-8226
[40] = test system: OVCAR-4
[41] = test system: MDA-N
[42] = test system: HOP-92
[43] = test system: HOP-62
[44] = test system: MCF7
[45] = test system: NCI/ADR-RES
[46] = test system: BT-549
[47] = test system: OVCAR-5
[48] = test system: 786-0
[49] = test system: SK-OV-3
[50] = test system: UO-31
[51] = test system: SNB-75
[52] = test system: SNB-19
[53] = test system: SK-MEL-5
[54] = test system: NCI-H23
[55] = test system: OVCAR-8
[56] = test system: SW-620
[57] = test system: SK-MEL-28
[58] = test system: HL-60

`CCN(CC)CCO/N=C1/C=C2CCC3C(CC[C@@]4(C)C3CC[C@]4(C)O)[C@@]2(C)CC1` (some centres undefined) was tested, and the GI50 [1] was 7.36 µM (inactive), the GI50 [2] was 4.21 µM (inactive) and the GI50 [3] was 4.6 µM (inactive). The GI50 [4] was 3.64 µM (inactive), the GI50 [5] was 2.29 µM and the GI50 [6] was 2.8 µM (inactive). For the same compound, the GI50 [7] was 4.52 µM (inactive), the GI50 [8] was 1.29 µM (inactive) and the GI50 [9] was 11.2 µM (inactive). For the same compound, the GI50 [10] was 3.18 µM (inactive), the GI50 [11] was 4.1 µM (inactive) and the GI50 [12] was 8.79 µM (inactive). For the same compound, the GI50 [13] was 3.41 µM (inactive), the GI50 [14] was 2.33 µM (inactive) and the GI50 [15] was 4.15 µM (inactive). For the same compound, the GI50 [16] was 4.8 µM (inactive), the GI50 [17] was 5.87 µM (inactive) and the GI50 [18] was 15.2 µM (inactive). The GI50 [19] was 4.9 µM (inactive), the GI50 [20] was 8.09 µM (inactive) and the GI50 [21] was 5.43 µM (inactive). The GI50 [22] was 4.48 µM (inactive), the GI50 [23] was 7.59 µM (inactive) and the GI50 [24] was 4.16 µM (inactive). The GI50 [25] was 5.12 µM (inactive), the GI50 [26] was 3.44 µM (inactive) and the GI50 [27] was 2.76 µM (inactive). For the same compound, the GI50 [28] was 6.37 µM (inactive), the GI50 [29] was 14.1 µM (inactive) and the GI50 [30] was 6.21 µM (inactive). The GI50 [31] was 1.82 µM (inactive), the GI50 [32] was 1.91 µM (inactive) and the GI50 [33] was 1.69 µM (inactive). For the same compound, the GI50 [34] was 2.49 µM (inactive), the GI50 [35] was 5.22 µM (inactive) and the GI50 [36] was 0.195 µM (active). For the same compound, the GI50 [37] was 15.5 µM (inactive), the GI50 [38] was 2.16 µM (inactive) and the GI50 [39] was 4.28 µM (inactive). For the same compound, the GI50 [40] was 17.5 µM (inactive), the GI50 [41] was 2.49 µM (inactive) and the GI50 [42] was 4.9 µM (inactive). The GI50 [43] was 4.06 µM (inactive), the GI50 [44] was 3.95 µM (inactive) and the GI50 [45] was 1.96 µM (inactive). The GI50 [46] was 11.7 µM (inactive), the GI50 [47] was 16.5 µM (inactive) and the GI50 [48] was 3.69 µM (inactive). The GI50 [49] was 14.3 µM (inactive), the GI50 [50] was 5.41 µM (inactive) and the GI50 [51] was 2.89 µM (inactive). The GI50 [52] was 11.6 µM (inactive), the GI50 [53] was 12.5 µM (inactive) and the GI50 [54] was 6.75 µM (inactive). For the same compound, the GI50 [55] was 5.21 µM (inactive).
With `CC1C2(C)OCC(C#N)(C(=N)O2)C1(C#N)C#N` (centres undefined) the GI50 [1] was > 100 µM (inactive), the GI50 [2] was 18.3 µM (inactive) and the GI50 [3] was 24.2 µM (inactive). The GI50 [4] was 18.5 µM (inactive), the GI50 [5] was 13.5 µM and the GI50 [6] was 15.1 µM (inactive). For the same compound, the GI50 [7] was 12.5 µM (inactive), the GI50 [8] was 22.8 µM (inactive) and the GI50 [9] was 14.4 µM (inactive). For the same compound, the GI50 [10] was 23.1 µM (inactive), the GI50 [11] was 17.7 µM (inactive) and the GI50 [12] was 16.1 µM (inactive). For the same compound, the GI50 [13] was 18.5 µM (inactive), the GI50 [14] was 78 µM (inactive) and the GI50 [56] was 25.9 µM (inactive). The GI50 [15] was 15.7 µM (inactive), the GI50 [16] was 33 µM (inactive) and the GI50 [17] was 36.5 µM (inactive). For the same compound, the GI50 [18] was 37.1 µM (inactive), the GI50 [19] was 23.9 µM (inactive) and the GI50 [20] was 22.8 µM (inactive). The GI50 [21] was 36.2 µM (inactive), the GI50 [22] was 32.8 µM (inactive) and the GI50 [23] was 12.6 µM (inactive). For the same compound, the GI50 [24] was 14.7 µM (inactive), the GI50 [25] was 17.9 µM (inactive) and the GI50 [26] was 16.3 µM (inactive). For the same compound, the GI50 [27] was 24.9 µM (inactive), the GI50 [28] was 22.5 µM (inactive) and the GI50 [29] was 17.9 µM (inactive). For the same compound, the GI50 [30] was 19.1 µM (inactive), the GI50 [31] was 15.8 µM (inactive) and the GI50 [32] was 27.3 µM (inactive). For the same compound, the GI50 [33] was 28.6 µM (inactive), the GI50 [34] was 67 µM (inactive) and the GI50 [35] was > 10 µM (inactive). For the same compound, the GI50 [36] was 88.7 µM (inactive), the GI50 [57] was 24.8 µM (inactive) and the GI50 [37] was 27.4 µM (inactive). The GI50 [41] was 18.3 µM (inactive), the GI50 [42] was 21.9 µM (inactive) and the GI50 [44] was 20.7 µM (inactive). For the same compound, the GI50 [45] was 41.2 µM (inactive), the GI50 [46] was 35.2 µM (inactive) and the GI50 [47] was 29.1 µM (inactive). The GI50 [48] was 21.3 µM (inactive), the GI50 [49] was > 100 µM (inactive) and the GI50 [50] was 36.2 µM (inactive). For the same compound, the GI50 [51] was 96.8 µM (inactive), the GI50 [52] was 43.5 µM (inactive) and the GI50 [53] was 11.3 µM (inactive). For the same compound, the GI50 [54] was 29.3 µM (inactive), the GI50 [58] was 15.6 µM (inactive) and the GI50 [55] was 23.9 µM (inactive).
